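Results reflect a 48-hour exposure of cells in 96-well plates to compound at five concentrations. GI50 = concentration required for 50% inhibition of growth.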 Active and inactive are the calls of the source. Cut-off read from the data, not from the text of the source: active = GI50 up to about 1.1 µM and inactive = higher.

Test systems include UACC-257; SF-295; NCI-H226; OVCAR-8; K562; SN12C; CAKI-1; RXF 393; HT-29; UACC-62; HCT-15; MCF7; SF-268; MDA-MB-435; KM12; OVCAR-5; CCRF-CEM; EKVX; LOX IMVI; HOP-62.
Holding throughout (assay): NCI-60 cell line screen, 48 h

As for `CCCC(CCC(N)=O)(CCC(N)=O)[N+](=O)[O-]`, the GI50 with UACC-257, with SF-295, in the test with NCI-H226, with OVCAR-8, with K562 and in the test with SN12C was > 100 µM (inactive) throughout. In addition, the GI50 in the test with CAKI-1 is > 100 µM (inactive); in the test with RXF 393 it was 69.3 µM (inactive); in the test on HT-29, > 100 µM (inactive); with UACC-62, > 100 µM (inactive); in the test on HCT-15, more than 100 µM; in the test on MCF7, > 100 µM (inactive). Also, the GI50 in the test with SF-268, in the test on MDA-MB-435, with KM12, in the test on OVCAR-5, in the test with CCRF-CEM and in the test with EKVX was > 100 µM (inactive) each time.

Take `CCOc1c(Br)cc(Br)cc1C=C(C#N)C#N`: the GI50 with SF-295 was 7.53 µM (inactive); in the test on NCI-H226, 0.69 µM (active); in the test with OVCAR-8, 3.42 µM (inactive); in the test with K562 it was 1.16 µM (inactive); with SN12C, 6.27 µM (inactive); in the test on RXF 393 it was > 10 µM (inactive). The GI50 in the test on HT-29 is > 10 µM (inactive); with LOX IMVI, 1.66 µM (inactive); with UACC-62, 6.08 µM (inactive); in the test with HCT-15, 2.96 µM; in the test with MCF7, 6.21 µM (inactive); in the test with SF-268, 5.82 µM (inactive). The GI50 with MDA-MB-435 was 4.18 µM (inactive); in the test on KM12, 5.93 µM (inactive); in the test on CCRF-CEM it was 1.18 µM (inactive); in the test with EKVX, > 10 µM (inactive); in the test on HOP-62 it was > 10 µM (inactive).

Regarding `CC1(C)O[C@@H]([C@H](O)CO)[C@H](O)[C@@H](C2SCCCS2)O1`, the GI50 with UACC-257, with SF-295, in the test on NCI-H226, in the test on OVCAR-8, in the test with SN12C and in the test with CAKI-1 was > 100 µM (inactive) each time. Besides, the GI50 in the test with RXF 393 was > 100 µM (inactive); in the test on HT-29 it was > 100 µM (inactive); in the test with UACC-62, > 100 µM (inactive); with HCT-15, more than 100 µM; in the test with MCF7, > 100 µM (inactive); in the test on SF-268, > 100 µM (inactive). For the same molecule, the GI50 with MDA-MB-435, in the test with KM12, with OVCAR-5, in the test with EKVX and in the test with HOP-62 was > 100 µM (inactive) in each case.

On to `CCCCOCCOC1=CC(=O)c2c(O)ccc(O)c2C1=O`, for which the GI50 is 1.03 µM (active) with UACC-257; 1.66 µM (inactive) in the test on SF-295; 1.72 µM (inactive) in the test with NCI-H226; 2 µM (inactive) with K562; 1.66 µM (inactive) with SN12C; 1.78 µM (inactive) with CAKI-1. Besides, the GI50 in the test with RXF 393 was 1.66 µM (inactive); with HT-29, 1.67 µM (inactive); with LOX IMVI, 1.73 µM (inactive); in the test on UACC-62, 1.51 µM (inactive); in the test with MCF7, 1.31 µM (inactive); in the test on SF-268, 1.76 µM (inactive). In addition, the GI50 is 0.185 µM (active) with MDA-MB-435; 1.75 µM (inactive) with KM12; 1.22 µM (inactive) in the test on CCRF-CEM; 1.69 µM (inactive) in the test on EKVX; 0.458 µM (active) in the test on HOP-62.

As to `O=C(O)CCC(=O)c1ccc[nH]1`, the GI50 is 94 µM (inactive) in the test with UACC-257; > 100 µM (inactive) in the test with SF-295; 64 µM (inactive) in the test on NCI-H226; > 100 µM (inactive) in the test on OVCAR-8; > 100 µM (inactive) in the test with K562; 6.56 µM (inactive) in the test on SN12C. Besides, the GI50 was > 100 µM (inactive) in the test on CAKI-1; > 100 µM (inactive) in the test on RXF 393; > 100 µM (inactive) in the test with HT-29; > 100 µM (inactive) with LOX IMVI; > 100 µM (inactive) in the test on UACC-62; more than 100 µM in the test with HCT-15. Further, the GI50 with MCF7, in the test on SF-268, with MDA-MB-435, in the test on KM12, in the test on OVCAR-5 and in the test on EKVX was > 100 µM (inactive) throughout. Further, in the test on HOP-62, the GI50 was > 100 µM (inactive).

Turning to `Cc1ccccc1OC(C)C(=O)NN1C(=O)CSC1c1ccccc1` (configuration not stated), the GI50 with UACC-257 is 45.2 µM (inactive); with SF-295, 56.2 µM (inactive); in the test on NCI-H226 it was 67.1 µM (inactive); with OVCAR-8, > 100 µM (inactive); in the test on K562, 14.7 µM (inactive); in the test with SN12C it was > 100 µM (inactive). Also, the GI50 in the test with CAKI-1 was > 100 µM (inactive); with RXF 393, 45 µM (inactive); in the test on HT-29, 93.1 µM (inactive); with LOX IMVI, > 100 µM (inactive); in the test with UACC-62 it was 64.7 µM (inactive); in the test with HCT-15, 65.3 µM. The GI50 in the test on MCF7 was 38.5 µM (inactive); in the test with SF-268, > 100 µM (inactive); in the test with MDA-MB-435 it was 79.3 µM (inactive); in the test with KM12, 93.5 µM (inactive); with OVCAR-5 it was > 100 µM (inactive); in the test with EKVX it was 83.2 µM (inactive). In addition, in the test with HOP-62, the GI50 is > 100 µM (inactive).

Take `C/C(=N\NC(=S)N/N=C(\C)c1ccccn1)c1ccccn1`: the GI50 with UACC-257 is 4.09 µM (inactive); in the test with SF-295 it was 1.57 µM (inactive); in the test with NCI-H226, 0.738 µM (active); in the test on OVCAR-8, 1.05 µM (active); with K562, 1.92 µM (inactive); in the test with SN12C, 0.345 µM (active). Also, the GI50 is 1.41 µM (inactive) with CAKI-1; 0.575 µM (active) with HT-29; 0.859 µM (active) with LOX IMVI; 1.71 µM (inactive) with UACC-62; 0.627 µM with HCT-15; 1.85 µM (inactive) in the test with MCF7. Also, the GI50 in the test on SF-268 was 0.817 µM (active); in the test with MDA-MB-435, 6.9 µM (inactive); in the test with KM12, 1.28 µM (inactive); in the test on OVCAR-5, 0.675 µM (active); with CCRF-CEM, 0.337 µM (active); in the test with EKVX it was 1.12 µM (inactive). Further, the GI50 in the test on HOP-62 was 1.05 µM (active).

As for `Nc1c(C(=O)c2ccc(Cl)c(Cl)c2)[nH]c(NCc2ccccc2)c1C(=S)Nc1ccccc1`, the GI50 in the test on UACC-257 was 13.8 µM (inactive); in the test on SF-295, 3.48 µM (inactive); in the test on NCI-H226, 11.3 µM (inactive); with OVCAR-8 it was 14.7 µM (inactive); with K562 it was 3.32 µM (inactive); in the test on SN12C, 14.9 µM (inactive). Further, the GI50 was 15.3 µM (inactive) in the test on CAKI-1; 10.4 µM (inactive) in the test with RXF 393; 3.23 µM (inactive) with HT-29; 2.21 µM (inactive) in the test with LOX IMVI; 14.3 µM (inactive) in the test on UACC-62; 2.51 µM in the test with HCT-15. Moreover, the GI50 in the test on MCF7 is 2.47 µM (inactive); with SF-268, 14.1 µM (inactive); with MDA-MB-435 it was 5.08 µM (inactive); with KM12, 3.18 µM (inactive); in the test with OVCAR-5, 13.6 µM (inactive); in the test with EKVX, 14.7 µM (inactive). Further, the GI50 in the test on HOP-62 is 17.3 µM (inactive).

Turning to `CSc1nc(=O)cnn1C`, the GI50 in the test on UACC-257, in the test with SF-295, in the test with NCI-H226, in the test on OVCAR-8, in the test on K562 and in the test with SN12C was > 100 µM (inactive) throughout. The GI50 was > 100 µM (inactive) in the test with CAKI-1; > 100 µM (inactive) in the test with RXF 393; > 100 µM (inactive) in the test with HT-29; > 100 µM (inactive) with UACC-62; more than 100 µM in the test on HCT-15; > 100 µM (inactive) in the test on MCF7. The GI50 in the test on SF-268, in the test with MDA-MB-435, in the test on KM12, in the test with OVCAR-5, in the test on CCRF-CEM and in the test on EKVX was > 100 µM (inactive) throughout. The GI50 with HOP-62 is > 100 µM (inactive).

As for `CCC(=O)O[C@H]1CC[C@H]2[C@@H]3CCC4=C/C(=N/OC(=O)c5cccc6c(=O)c7ccccc7[nH]c56)CC[C@]4(C)[C@H]3CC[C@]12C`, the GI50 is 38.1 µM (inactive) with UACC-257; 29.9 µM (inactive) in the test on SF-295; 33.8 µM (inactive) in the test with NCI-H226; 29.9 µM (inactive) with OVCAR-8; 18 µM (inactive) in the test on K562; 42.9 µM (inactive) with SN12C. Further, the GI50 with RXF 393 is 22.5 µM (inactive); with HT-29 it was 27.3 µM (inactive); in the test with LOX IMVI, 23.3 µM (inactive); in the test with UACC-62 it was 28.8 µM (inactive); with HCT-15, 21.3 µM; in the test on MCF7, 20.9 µM (inactive). The GI50 in the test with SF-268 is 38.5 µM (inactive); in the test on MDA-MB-435, 27.6 µM (inactive); in the test on KM12, 22.9 µM (inactive); in the test on OVCAR-5, 33.7 µM (inactive); in the test with CCRF-CEM, 14 µM (inactive); in the test with EKVX, 8.53 µM (inactive). The GI50 in the test with HOP-62 was 32.1 µM (inactive).

In the case of `CCCc1n[nH]c(=O)n1N1C(=O)C=CC1=O`, the GI50 in the test with UACC-257, in the test with SF-295, with K562, in the test on SN12C, in the test with CAKI-1 and in the test on RXF 393 was > 100 µM (inactive) each time. For the same molecule, the GI50 in the test on UACC-62 was > 100 µM (inactive); in the test with HCT-15, more than 100 µM; in the test with MCF7, > 100 µM (inactive); in the test on MDA-MB-435, > 100 µM (inactive); in the test with OVCAR-5, > 100 µM (inactive); in the test with CCRF-CEM it was > 100 µM (inactive). The GI50 in the test with EKVX and in the test on HOP-62 was > 100 µM (inactive) throughout.

Source of the values: ChEMBL document CHEMBL1201862, “PubChem BioAssay data set” (2004).
